A short description of data set [1]: Stability of the adducts as solids. Format: physicochemical. The settings on record: applicant's statements; room temperature, closed containers or air.
The conditions of data set [2]: unless stored at -78° C.; prior art salts; cited from earlier work.
Data set [3] can be described thus: % NO by weight of the NO complexes. Format: physicochemical.
Data set [4] in a line: NO release half-life by disappearance of UV absorption in phosphate buffer. Format: physicochemical. The protocol:
Ultraviolet data were obtained in 0.01M NaOH to avoid this degradation problem. […] Kinetic data were obtained by diluting stock solutions (0.01M NaOH) of each compound with pH 7.4 phosphate buffer (0.1M) as needed to produce final solutions having compound concentrations in the range of 90-120 μM.

A short description of data set [5]: Equivalents of NO released at 22° C. Format: physicochemical.
Data set [6] is described as follows: % NO yield on acid release, thermal energy analyzer (TEA). Format: physicochemical. To be noted: weight percent of the theoretical maximum, dilute aqueous HCl. On the procedure: NO gas was generated from compounds 2, 6, 10, 11, and 14 of Example 1, as well as H2 N(CH2)3 N[N(O)NO^- ](CH2)4 NH(CH2)3 NH3^+, using the procedure set forth below. The percent NO yield was then calculated for each of these NO adducts.
The apparatus comprises a first vessel 10 having an inlet 11 and an outlet 12 and contains mineral oil (or other heavy liquid) to prevent backflow. The outlet 12 of vessel 10 is connected to a first inlet 21 of second vessel 20, which also has a second inlet 22 and an outlet 23. The second vessel 20 contained either the solid NO complex or an aqueous solution of the NO complex. An addition funnel 30 is connected to the second inlet 22 of second vessel 20 so as to provide a means of introducing dilute aqueous HCl into second vessel 20. The outlet 23 of second vessel 20 is connected to the inlet 41 of condenser 40, and the outlet 42 of condenser 40 is connected to the inlet 51 of third vessel 50. The condenser 40 and third vessel 50 function to capture any mist carried through the apparatus in the gas stream. The outlet 52 of third vessel 50 is connected to drying towers 60 and 70 which contain desiccant such as calcium chloride or molecular sieves and contain an outlet 71 for gas passage.
In use, nitrogen gas was passed through the apparatus through the inlet 11 of first vessel 10 to flush oxygen from the apparatus. Acidic solution was then introduced into second vessel 20 by way of addition funnel 30, and NO gas was generated in second vessel 20. The thus generated NO gas flowed through the outlet 23 of second vessel 20, through the condenser 40, into the third vessel 50, into the drying towers 60 and 70, and out the […].
The NO gas released through the outlet 71 of drying column 70 was fed into a thermal energy analyzer (TEA), which generates a signal proportional to the quantity of NO gas present. The yield of NO gas, as a weight percent of the theoretical maximum, obtained for each of the compounds tested is given in Table III.

Data set [7] is described as follows: NO gas yield measured volumetrically in a gas buret. Format: physicochemical. On the procedure: In a separate series of experiments, the generated gas was also collected in a gas buret and the yields were measured volumetrically. Yields ranged from 70-90% of theoretical. For example, when 1.0 g of CH3 N(N2 O2^-)CH2 CH2 NH3^+ was added to 5 ml concentrated H2 SO4, 285 ml NO gas (85%) was trapped in the buret.

The nature of data set [8]: Refrigerated storage stability by combustion analysis. Format: physicochemical. To be noted: refrigerator, several months. The text has this:
Samples of compound 11 of Example 1 were stored in a refrigerator over the course of several months.

Where [9] appears, read: 22° C., pH 7.4, 0.1M phosphate buffer, read-out: t1/2.
Where [10] appears, read: phosphate buffer, buffered aqueous solution, pH 7.4, 22° C., read-out: half-life (converted).

SMILES strings stand for the structures. Like-named read-outs stand apart in the source and are kept apart here.

On to `CC(C)N(CCCN)[N+]([O-])=NO.CC(C)NCCCN`, for which, in data set [1], the stability as solid entry is listed as “not stable enough to obtain combustion analytical data”.

With `CC(C)N/[N+]([O-])=N/O`, the “stability in the solid state” value in data set [2] is “slow decomposition even in the solid state unless stored at -78 °C”.

With `CCN(CC)[N+]([O-])=NO` [CH3 CH2 N(N2 O2^-)CH2 CH3.Na^+, reference compound], the “% NO By Wt.” value in data set [3] was 38.7%.

In the case of `CC(C)N(CCCN)[N+]([O-])=NO` [Compound 1, 1-Hydroxy-2-oxo-3-(3-aminopropyl)-3-isopropyl-1-triazene], in data set [4] (setting [9]), the half-life turned out to be 1.55 h.

As for `CNCCN(C)[N+]([O-])=NO` [Compound 2, 1-Hydroxy-2-oxo-3-(N-methyl-2-aminoethyl)-3-methyl-1-triazene], in data set [3], the “% NO By Wt.” value is recorded as 40.5%. Moreover, the half-life in data set [4] (setting [9]) and in data set [4] (setting [10]) was 0.602 h each time. In addition, in data set [5], the “equivalents of NO released” value is “two equivalents”. Moreover, the “% NO Yield” value in data set [6] is 98%.

Take `CNCCCN(C)[N+]([O-])=NO` [Compound 3, 1-Hydroxy-2-oxo-3-(N-methyl-3-aminopropyl)-3-methyl-1-triazene]: the half-life in data set [4] (setting [9]) and in data set [4] (setting [10]) was 0.168 h throughout.

As to `CNCCCCN(C)[N+]([O-])=NO` [Compound 4, 1-Hydroxy-2-oxo-3-(N-methyl-4-aminobutyl)-3-methyl-1-triazene], the half-life in data set [4] (setting [9]) and in data set [4] (setting [10]) was 0.0217 h throughout.

Take `CNCCCCCCN(C)[N+]([O-])=NO` [Compound 5, 1-Hydroxy-2-oxo-3-(N-methyl-6-aminohexyl)-3-methyl-1-triazene]: the half-life in data set [4] (setting [9]) is 0.045 h.

On to `CN(CCN)[N+]([O-])=NO` [Compound 6, 1-Hydroxy-2-oxo-3-(2-aminoethyl)-3-methyl-1-triazene], for which the “% NO By Wt.” value worked out at 45% in data set [3] and 44.7% in data set [3] (listed as CH3 N(N2 O2^-)CH2 CH2 NH3^+). For the same compound, the half-life in data set [4] (setting [9]) and in data set [4] (setting [10]) was 0.667 h throughout. In addition, in data set [7] (1.0 g adduct added to 5 ml concentrated H2 SO4), the “volume of NO gas trapped” value came to 285 mL. The “volumetric NO yield” value in data set [7] (percent of theoretical, gas buret) is given as 85%. Further, the “equivalents of NO released” value in data set [5] is “two equivalents”. Besides, the “% NO Yield” value in data set [6] is recorded as 110%.

In the case of `CCN(CCN)[N+]([O-])=NO` [Compound 7, 1-Hydroxy-2-oxo-3-(2-aminoethyl)-3-ethyl-1-triazene], the “% NO By Wt.” value in data set [3] was 40.5%. In addition, the half-life in data set [4] (setting [9]) and in data set [4] (setting [10]) was 5.55 h throughout.

For the compound `CCNCCN(CC)[N+]([O-])=NO` [Compound 8, 1-Hydroxy-2-oxo-3-(N-ethyl-2-aminoethyl)-3-ethyl-1-triazene], the “% NO By Wt.” value in data set [3] was 34.1%. In data set [4] (setting [9]), the half-life was determined as 5.45 h. The “equivalents of NO released” value in data set [5] was “two equivalents”.

As for `CN(CCCN)[N+]([O-])=NO` [Compound 9, 1-Hydroxy-2-oxo-3-(3-aminopropyl)-3-methyl-1-triazene], in data set [4] (setting [9]), the half-life amounted to 0.228 h.

For the compound `CCNCCCN(CC)[N+]([O-])=NO` [Compound 10, 1-Hydroxy-2-oxo-3-(N-ethyl-3-aminopropyl)-3-ethyl-1-1-triazene], the half-life in data set [4] (setting [9]) came to 1.2 h. Also, the “% NO Yield” value in data set [6] amounted to 100%.

`CCCN(CCCN)[N+]([O-])=NO` [Compound 11, 1-Hydroxy-2-oxo-3-(3-aminopropyl)-3-propyl-1-triazene]: the “change in elemental composition on storage” value in data set [8] was “no change in elemental composition was observed”. The half-life in data set [4] (setting [9]) was found to be 1.28 h. For the same compound, the “equivalents of NO released” value in data set [5] was “two equivalents”. In addition, the “% NO Yield” value in data set [6] is 110%.

`CC(C)NCCCN(C(C)C)[N+]([O-])=NO` [Compound 12, 1-Hydroxy-2-oxo-3-(N-isopropyl-3-aminopropyl)-3-isopropyl-1-triazene]: the half-life in data set [4] (setting [9]) came to 1.48 h.

With `NCCCN(C1CCCCC1)[N+]([O-])=NO` [Compound 13, 1-Hydroxy-2-oxo-3-(3-aminopropyl)-3-cyclohexyl-1-triazene], in data set [4] (setting [9]), the half-life turned out to be 1.92 h.

Turning to `NCCN(CCN)[N+]([O-])=NO` [Compound 14, 1-Hydroxy-2-oxo-3,3-di (2-aminoethyl)-1-triazene], the “% NO By Wt.” value in data set [3] was 36.8%. For the same compound, the half-life in data set [4] (setting [9]) was 56.7 h; in data set [4] (setting [10]), 56 h. Further, the “half-life (in words)” value in data set [4] (comparison between adducts differing in R' or type) was “too stable to permit monitoring over a sufficient number of half-lives”. In addition, the “half-life relative to the diethylamine/NO adduct” value in data set [4] (fold over diethylamine/NO adduct) is on record as “over 200 times”. The “equivalents of NO released” value in data set [5] is “two equivalents”. In addition, the “% NO Yield” value in data set [6] was 97%.

For the compound `NCCCN(CCCN)[N+]([O-])=NO` [Compound 15, 1-Hydroxy-2-oxo-3,3-di(3-aminopropyl)-1-triazene], the half-life in data set [4] (setting [9]) worked out at 4.73 h.

Consider `NCCCCN(CCCN)[N+]([O-])=NO` [Compound 16, 1-Hydroxy-2-oxo-3-(3-aminopropyl)-3-(4-aminobutyl)-1-triazene], for which the stability as solid entry in data set [1] is “hygroscopic”. The half-life in data set [4] (setting [9]) is 2.75 h.

Regarding `CCN(CC)[N+]([O-])=NO` [DEA/NO], the “stability in the solid state” value in data set [2] is “slow decomposition even in the solid state unless stored at -78 °C”.

Consider `NCCCNCCCCN(CCCN)[N+]([O-])=NO` [spermine/NO adduct], for which the “equivalents of NO released” value in data set [5] is reported as “two equivalents”. Further, the “% NO Yield” value in data set [6] came to 95%.

The record behind these values is patent publication US5683668A, “Method of generating nitric oxide gas using nitric oxide complexes” (The United States of America as represented by the …, priority 1996, dated 1997).
